Test results published in patent US20230078425A1, “COMPOSITIONS AND METHODS FOR GENERATING SYNTHETIC LETHALITY IN TUMORS” (Engine Biosciences Pte. Ltd., priority 2021, published 2023).

Tested on: LS180 cells
Test: CombiGEM CRISPR/Cas9 double-knockout screen (gene A biomarker + PKMYT1), barcode LFC and GI score, LS180
Assay type: cell-based, human
Description: A combinatorial genetic en masse (CombiGEM™) screen is used to validate synthetic lethal pairs identified by the computational methods described in Example 1. Methods of performing CombiGEM™ are known in the art and described in U.S. Pat. No. 9,315,806; Bari, et al. (2017) Scientific Reports 7:6993; Wong, et al (2016) PNAS 113:2544-2549, each of which are incorporated by reference in their entirety. This example provides an overview of the pooled screening method to validate predicted synthetic lethal pairs of gene A biomarkers and gene B targets.
Briefly, oligonucleotide synthesis is used to generate a library of barcoded gRNA target sequences directed to gene A biomarkers (“gene A gRNA library”) and a library of barcoded gRNA target sequences directed to gene B targets (“gene B gRNA library”). […]
The barcoded sgRNA lentiviral libraries are evaluated in Cas9-expressing cancer cell lines (e.g., HT29 and/or LS180 cell lines). […] Genomic DNA is harvested and used for quantification of the integrated barcodes using a combination of barcode amplification by PCR and sequencing by NGS. […] The barcode reads are normalized per million reads for each sample. To measure cell proliferation, barcode count ratios of normalized barcode reads were calculated as fold changes. […]

IGF1
GI (gene interaction score = observed minus expected (gene A LFC + gene B LFC) double-knockout LFC, gene B = PKMYT1, LS180 cells): −1.07 | LFC (gene A * B) (log2 fold-change of barcode counts, double knockout of gene A biomarker and PKMYT1, Cas9-expressing LS180 cells): −1.68
